Assay results from PMC3914206.

Key:
[1] = target: T1, panel of 442 kinases (Homo sapiens, UniProt Q9HC98); type: binding; details: Compound Concentration 10 µM
T1 construct: purchased KINOMEscan
Text: (§1) We assessed the selectivity of members of this scaffold using the KINOMEscan methodology across a near comprehensive panel of 442 kinases [[18,27]].

[2] = target: T2, panel of 442 kinases (Homo sapiens, UniProt P57059); type: binding; details: kinase SIK; compound concentration 10 µM
T2 construct: purchased KINOMEscan
T2 sequence (P57059 whole entry): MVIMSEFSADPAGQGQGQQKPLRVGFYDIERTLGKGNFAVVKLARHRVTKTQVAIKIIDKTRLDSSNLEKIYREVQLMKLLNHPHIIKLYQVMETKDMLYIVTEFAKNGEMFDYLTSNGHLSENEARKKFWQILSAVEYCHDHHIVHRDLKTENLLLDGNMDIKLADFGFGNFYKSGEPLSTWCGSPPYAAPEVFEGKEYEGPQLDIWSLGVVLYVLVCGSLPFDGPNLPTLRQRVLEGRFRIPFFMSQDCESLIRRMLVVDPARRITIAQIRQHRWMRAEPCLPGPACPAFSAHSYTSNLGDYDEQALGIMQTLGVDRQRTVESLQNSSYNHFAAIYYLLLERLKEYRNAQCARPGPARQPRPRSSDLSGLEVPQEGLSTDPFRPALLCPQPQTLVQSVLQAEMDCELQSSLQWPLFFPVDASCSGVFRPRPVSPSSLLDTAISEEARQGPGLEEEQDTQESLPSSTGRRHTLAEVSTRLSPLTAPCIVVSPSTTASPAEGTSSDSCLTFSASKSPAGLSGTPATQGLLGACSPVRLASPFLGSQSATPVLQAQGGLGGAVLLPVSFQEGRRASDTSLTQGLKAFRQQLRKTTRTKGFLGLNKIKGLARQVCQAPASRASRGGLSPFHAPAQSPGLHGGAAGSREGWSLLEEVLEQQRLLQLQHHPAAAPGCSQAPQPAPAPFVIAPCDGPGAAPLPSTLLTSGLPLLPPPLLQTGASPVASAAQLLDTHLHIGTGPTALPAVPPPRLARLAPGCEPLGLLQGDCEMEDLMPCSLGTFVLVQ
Text: as §1

T1 sequence (Q9HC98 whole entry): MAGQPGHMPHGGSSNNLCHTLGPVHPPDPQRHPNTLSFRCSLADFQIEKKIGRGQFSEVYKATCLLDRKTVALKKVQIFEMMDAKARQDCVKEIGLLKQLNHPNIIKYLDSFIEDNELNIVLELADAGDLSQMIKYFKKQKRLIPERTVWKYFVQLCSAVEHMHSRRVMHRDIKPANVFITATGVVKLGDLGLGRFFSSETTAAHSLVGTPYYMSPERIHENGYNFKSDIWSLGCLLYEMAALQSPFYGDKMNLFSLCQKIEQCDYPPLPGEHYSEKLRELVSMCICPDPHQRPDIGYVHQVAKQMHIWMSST

Compound | KINOMEscan: NEK6 [1] | % Ctrl, SIK [2]
COc1cc(C(=O)N2CCC(N3CCN(C)CC3)CC2)ccc1Nc1ncc2c(n1)N1CCc3cccc(c31)C(=O)N2C [Compound 24] | 56 | 90 % Ctrl
CCOc1cc(C(=O)N2CCC(N3CCN(C)CC3)CC2)ccc1Nc1ncc2c(n1)N(C1CCCC1)c1ccccc1C(=O)N2C [Compound 26] | 100 | 100 % Ctrl
COc1cc(C(=O)N2CCC(N3CCN(C)CC3)CC2)ccc1Nc1ncc2c(n1)N(C1CCCC1)c1ccccc1C(=O)N2C [Compound 25, 11-cyclopentyl-2-((2-methoxy-4-(4-(4-methylpiperazin-1-yl)piperidine-1-carbonyl)phenyl)amino)-5-methyl-5H-benzo[e]pyrimido[5,4-b][1,4]diazepin-6(11H)-one] | 100 | 98 % Ctrl
COc1cc(C(=O)N2CCC(N3CCN(C)CC3)CC2)ccc1Nc1ncc2c(n1)N(C)c1ccccc1C(=O)N2C [15 (LRRK2-IN-1)] | 76 | 77 % Ctrl
